Entries after “also recorded” stand apart in the source; their conditions may differ. Like-named read-outs stand apart in the source and are kept apart here.
Tests used:
Ub-G76V = settings: read-out: Potency of inhibition: EC50 on Ub-G76V in cell culture; cited from earlier work
VCP ATPase = VCP ATPase (Homo sapiens, UniProt P55072); settings: read-out: Potency of inhibition: IC50 on ATPase in vitro; cited from earlier work
VCP mutant motor neurons = experiment: RBP localisation by immunofluorescence in VCP mutant iPSC-derived motor neurons; assay type: cell-based, human
Experimental: (§1) Cell culture and motor neuron differentiation. IPSCs were maintained with Essential 8 Medium media (Life Technologies) on Geltrex (Life Technologies), and passaged using EDTA (Life Technologies, 0.5 mM). IPSC cultures were kept at 37° C. and 5% carbon dioxide. IPSCs underwent differentiation into spinal cord motor neurons as described in Hall et al, 2017 [12].
(§2) IPSC were plated to 100% confluency and then differentiated to the neuroepithelium in medium consisting of DMEM/F12 Glutamax, Neurobasal, L-Glutamine, N2 supplement, nonessential amino acids, B27 supplement, β-mercaptoethanol (all from Life Technologies) and insulin (Sigma). The cells underwent a sequential treatment with small molecules, with day 0-7: 1 μM Dorsomorphin (Millipore), 2 μM SB431542 (Tocris Bioscience), and 3.3 μM CHIR99021 (Miltenyi Biotec), day 7-14: 0.5 μM retinoic acid (Sigma) and 1 μM Purmorphamine (Sigma), day 14-18: 0.1 μM Purmorphamine. Following 18 days of neural conversion and patterning, neural precursors were terminally differentiated in 0.1 μM Compound E (Enzo Life Sciences).
(§3) […] neuroepithelial layer was enzymatically dissociated using dispase (GIBCO, 1 mg ml−1). The neural precursors were dissociated with Accutase (Life Technologies) for final plating onto a 96 well plate (Falcon) coated with polyethylenimine (PEI) (2.2 mg/ml in 0.1M of sodium borate (Sigma) and Geltrex. Following 6 days of terminal differentiation, cells were fixed in 4% paraformaldehyde for immunolabeling.
(§4) Inhibitor treatment. Motor neuron cultures were treated with 1 μM of ML240 (Sigma; SML1071; CAS:1346527-98-7) for 2 hours, 5 μM of DBeQ for 3 hours or 1 μM of CB-5083 for 3 hours.
(§5) Immunofluorescence staining. Cells were fixed in 4% paraformaldehyde in PBS for 15 minutes at room temperature (RT). For permeabilization and non-specific antibody blocking, 0.3% Triton-X containing 5% bovine serum albumin (BSA) (Sigma) in PBS was added for 60 minutes. Primary antibodies were made up in 5% BSA and then applied overnight at 4° C. Primary antibodies used were SMI-32 (BioLegend; 801701; mouse; 1:1000), ChAT (Millipore; AB144P; goat; 1:100), βIII-tubulin (abcam; ab41489; chicken; 1:1000), TDP-43 (ProteinTech; 12892-1-AP; rabbit; 1:400), SFPQ (abcam; ab11825; mouse; 1:400), FUS (Santa Cruz; sc-47711; mouse; 1:200), hnRNPA1 (Cell Signaling; 8443S; rabbit; 1:500), hnRNPK (Santa Cruz; sc-28380; mouse; 1:500). A species-specific Alexa Fluor-conjugated secondary antibody (Life Technologies) at 1:1000 dilution in 5% BSA was added for 90 minutes at RT in the dark. Cells were washed once in PBS containing DAPI, 4′,6-diamidino-2-phenylindole nuclear stain (1:1000) for 10 minutes.
(§6) Image acquisition and analysis. Images were acquired using the Opera Phenix High-Content Screening System (Perkin Elmer). Images were acquired with a 40× objective as confocal z-stacks with a z-step of 1 μm. Stacks were processed to obtain a maximum intensity projection. A minimum of 12 fields of view were taken for each well. To calculate the nuclear:cytoplasmic ratio of RNA-binding proteins (RBPs) in single cells, images were analysed using the Columbus Image Analysis System (Perkin Elmer). A DAPI mask defined the nucleus, and based on nuclear properties a trained machine learning feature selected neurons in an automated fashion. For each individual cell an average nuclear intensity of the RBP of interest was measured. For the cytoplasmic measurement, a 1.5 μm cytoplasmic region was defined around the nucleus within a cytoplasmic mask and an average intensity measured. […] A ratio of the nuclear:cytoplasmic average intensity measurements was calculated per cell. An average of each field was calculated and then averaged across the well.
(§7) For the nuclear:neurite ratio, we implemented a semi-automated image analysis pipeline combining Ilastik, Cellprofiler and ImageJ.

control motor neurons = experiment: RBP localisation by immunofluorescence in control iPSC-derived motor neurons; assay type: cell-based, human; settings: vs untreated
Experimental: as §1, §2, §3, §4, §5, §6, §7

[1] = tested on: control and VCP mutant motor neurons; experiment: Western blot of TDP-43, FUS and SFPQ protein levels; assay type: cell-based, human; settings: 1 μM ML240, 2 hours; whole cells
Experimental: Western blot analysis. Protein levels of TDP-43, FUS and SFPQ were assessed in whole cells in control and VCP mutant motor neurons. Cells were subjected to untreated conditions or treatment of 1 μM of ML240 for 2 hours prior to protein extraction. The cells were lysed and proteins were extracted with RIPA disruption. Total protein concentration was quantified using BCA protein assay (Sigma). Equal amounts of protein samples were then loaded onto a gel and separated by SDS PAGE and transferred onto a nitrocellulose membrane. Samples were then blocked with PBS, 0.1% Tween, 5% dry milk powder at RT for one hour followed by primary antibody incubation overnight at 4° C. The following antibodies were diluted in PBS 5% BSA; TDP-43 (ProteinTech; 12892-1-AP; rabbit; 1:1000), SFPQ (Abcam; 11825; mouse; 1:250), FUS (Santa Cruz; sc-47711; mouse; 1:500), GAPDH (GeneTex; GT239; mouse; 1:10000). For detection, membranes were incubated with species-specific near infra-red fluorescent antibodies (IRDye, Licor) at RT for one hour and imaged using an Odyssey Fc Imaging System (Licor).

[2] = tested on: TARDBP-mutant (G298S) motor neurons; settings: 1 μM CB-5083, 3 hours, vs untreated
Experimental: Immunofluorescence staining. Cells were fixed in 4% paraformaldehyde in PBS for 15 minutes at room temperature (RT). For permeabilization and non-specific antibody blocking, 0.3% Triton-X containing 5% bovine serum albumin (BSA) (Sigma) in PBS was added for 60 minutes. Primary antibodies were made up in 5% BSA and then applied overnight at 4° C. […]
Image acquisition and analysis. […] To calculate the nuclear:cytoplasmic ratio of RNA-binding proteins (RBPs) in single cells, images were analysed using the Columbus Image Analysis System (Perkin Elmer). […] For each individual cell an average nuclear intensity of the RBP of interest was measured. For the cytoplasmic measurement, a 1.5 μm cytoplasmic region was defined around the nucleus within a cytoplasmic mask and an average intensity measured. […] A ratio of the nuclear:cytoplasmic average intensity measurements was calculated per cell. An average of each field was calculated and then averaged across the well.

[3] = 1 μM ML240, 2 hours, normalised to control untreated

Chain of VCP ATPase (P55072 whole entry): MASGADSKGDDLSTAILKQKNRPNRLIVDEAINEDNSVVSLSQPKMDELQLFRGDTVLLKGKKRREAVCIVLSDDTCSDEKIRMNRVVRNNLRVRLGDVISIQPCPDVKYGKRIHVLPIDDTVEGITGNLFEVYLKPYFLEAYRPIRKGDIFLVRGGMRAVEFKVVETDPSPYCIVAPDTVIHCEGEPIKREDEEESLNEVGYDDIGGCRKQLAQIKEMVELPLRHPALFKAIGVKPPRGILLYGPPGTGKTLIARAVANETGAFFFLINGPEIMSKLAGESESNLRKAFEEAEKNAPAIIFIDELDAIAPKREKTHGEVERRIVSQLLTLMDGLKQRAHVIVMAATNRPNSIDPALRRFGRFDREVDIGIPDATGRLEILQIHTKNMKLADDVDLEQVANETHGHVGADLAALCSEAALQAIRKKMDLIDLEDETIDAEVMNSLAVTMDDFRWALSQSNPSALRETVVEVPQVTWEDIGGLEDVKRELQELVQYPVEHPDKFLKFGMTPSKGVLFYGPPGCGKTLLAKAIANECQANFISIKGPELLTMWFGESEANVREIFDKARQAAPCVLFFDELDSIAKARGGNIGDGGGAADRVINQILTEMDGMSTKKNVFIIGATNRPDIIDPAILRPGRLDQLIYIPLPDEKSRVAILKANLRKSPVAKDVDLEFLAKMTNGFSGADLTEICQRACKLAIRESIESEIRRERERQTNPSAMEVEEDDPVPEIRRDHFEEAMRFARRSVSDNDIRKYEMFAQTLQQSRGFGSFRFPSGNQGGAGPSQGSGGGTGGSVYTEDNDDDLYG

In the case of “3,4-methylenedioxy-6-nitrostyrene [Syk inhibitor III]”, the EC50 (Ub-G76V) is given as 1600 nM and the IC50 (VCP ATPase) is given as 1700 nM.
In the case of `COc1cccc2c(NCc3ccccc3)nc(-n3c(N)nc4ccccc43)nc12` [ML240, 2-(2-Amino-1H-benzimidazole-1-yl)-8-methoxy-N-(phenylmethyl)-4-quinazolinamine], the “hnRNPA1 nuclear:cytoplasmic ratio” value (VCP mutant motor neurons; 1 μM ML240, 2 hours) is reported as “no change”, the “hnRNPK nuclear:cytoplasmic ratio” value (VCP mutant motor neurons; 1 μM ML240, 2 hours) is reported as “no change” and the “FUS nuclear:cytoplasmic ratio” value (VCP mutant motor neurons; [3]) is reported as “robustly reversed the mislocalization; also recorded: increase”. For the same compound, the “FUS nuclear:neurite ratio” value (VCP mutant motor neurons; [3]) was “robustly reversed the mislocalization; also recorded: increase of the nuclear:neurite ratio to control values”, the “SFPQ nuclear:neurite ratio” value (VCP mutant motor neurons; [3]) was “significantly reversed; also recorded: increase” and the “TDP-43 nuclear:cytoplasmic ratio (N/C)” value (VCP mutant motor neurons; [3]) was “robustly reversed the mislocalization; also recorded: increased above control values”. For the same compound, the “TDP-43 nuclear:neurite ratio (Nu/Ne)” value (VCP mutant motor neurons; [3]) was “robustly reversed the mislocalization; also recorded: increased”, the “FUS nuclear:cytoplasmic ratio” value (control motor neurons; 1 μM ML240, 2 hours) was “no difference” and the “FUS nuclear:neurite ratio” value (control motor neurons; 1 μM ML240, 2 hours) was “small increase”. The “SFPQ nuclear:cytoplasmic ratio” value (control motor neurons; 1 μM ML240, 2 hours) was “no difference”, the “SFPQ nuclear:neurite ratio” value (control motor neurons; 1 μM ML240, 2 hours) was “no difference” and the “TDP-43 nuclear:cytoplasmic ratio (N/C)” value (control motor neurons; 1 μM ML240, 2 hours) was “increase”. The “TDP-43 nuclear:neurite ratio (Nu/Ne)” value (control motor neurons; 1 μM ML240, 2 hours) was “no such increase was observed; also recorded: no difference”, the “hnRNPA1 nuclear:cytoplasmic ratio” value (control motor neurons; 1 μM ML240, 2 hours) was “no difference” and the “hnRNPK nuclear:cytoplasmic ratio” value (control motor neurons; 1 μM ML240, 2 hours) was “no difference”. For the same compound, the “FUS overall protein level (Western blot, normalised to GAPDH)” value [1] was “did not change; also recorded: does not change”, the “SFPQ overall protein level (Western blot, normalised to GAPDH)” value [1] was “did not change; also recorded: does not change” and the “TDP-43 overall protein level (Western blot, normalised to GAPDH)” value [1] was “did not change; also recorded: does not change”.
In the case of `Cc1cc2c(C(N)=O)cccc2n1-c1nc2c(c(NCc3ccccc3)n1)COCC2` [CB-5083, 1-[7,8-dihydro-4-[(phenylmethyl)amino]-5H-pyrano[4,3-d]pyrimidin-2-yl]-2-methyl-1H-indole-4-carboxamide], the “TDP-43 nuclear:cytoplasmic ratio (N/C)” value (VCP mutant motor neurons; 1 μM CB-5083, 3 hours, vs untreated) is reported as “able to reverse”, the “TDP-43 nuclear:cytoplasmic ratio (N/C)” value (VCP mutant motor neurons; 1 μM CB-5083, 3 hours, vs untreated, listed as CB5083) is reported as “increase” and the “TDP-43 nuclear:cytoplasmic ratio (N/C)” value [2] is reported as “increased”. The “TDP-43 nuclear:cytoplasmic ratio (N/C)” value ([2]; listed as CB5083) was “increase” and the “TDP-43 nuclear:cytoplasmic ratio (N/C)” value (control motor neurons; 1 μM CB-5083, 3 hours) was “increase”.
For `c1ccc(CNc2nc(NCc3ccccc3)c3ccccc3n2)cc1` [DBeQ, N2,N4-dibenzylquinazo-line-2,4-diamine], the “TDP-43 nuclear:cytoplasmic ratio (N/C)” value (VCP mutant motor neurons; 5 μM DBeQ, 3 hours, vs untreated) is given as “able to reverse”, the “TDP-43 nuclear:cytoplasmic ratio (N/C)” value (VCP mutant motor neurons; 5 μM DBeQ, 3 hours, vs untreated, listed as DBEQ) is given as “increase” and the EC50 (Ub-G76V) is given as 2600 nM. For the same compound, the “TDP-43 nuclear:cytoplasmic ratio (N/C)” value (control motor neurons; 5 μM DBeQ, 3 hours) was “increased”, the “TDP-43 nuclear:cytoplasmic ratio (N/C)” value (control motor neurons; 5 μM DBeQ, 3 hours, listed as DBEQ) was “increase” and the IC50 (VCP ATPase) was 1500 nM.
In the case of `Cc1cc(OCc2nnc(SC3CCCC3)n2-c2cccnc2)ccc1-c1ccc(S(C)(=O)=O)cc1` [NMS-873], the EC50 (Ub-G76V) is given as 400 to 700 nM.
